Results from patent US9340577B2, “HLA binding motifs and peptides and their uses” (priority 1992, dated 2016).
No end group written: not given here.

Experiments:
Test in all cases: biochemical
DRB3*0101 = DRB3*0101 (Homo sapiens, UniProt P01903+P79483); type: binding
DRB5*0101 = DRB5*0101 (Homo sapiens, UniProt P01903+Q30154)
DRB1*1101 = DRB1*1101 (Homo sapiens, UniProt P01903+P01911, A100R/A169T/A87E/I96F/K41T/L162R/M171V/P40S/Q125H/Q178H/Q39Y/Q99D/R42S/S66Y/T262R/V115G/W38E)
DRB1*1501 = DRB1*1501 (Homo sapiens, UniProt P01903+P01911); type: binding
DR7 (DRB1*0701) = DR7 (DRB1*0701) (Homo sapiens, UniProt P01903+P01911, A100R/A102G/A103Q/D57E/D86V/E43K/F76Y/K127E/L162R/M171V/P40G/Q125H/Q99D/R33Q/R42Y/R54Q/S133A/S66F/T210M/V115G/Y107V/Y59L/Y89S); type: binding
DRB1*0901 = DRB1*0901 (Homo sapiens, UniProt P01903+P01911, A100R/A103E/D57H/D86V/F55Y/F60I/F76Y/I96F/K127E/L162R/M171V/P40D/Q125H/Q99R/R33Q/R42F/S133A/S66N/T210M/V115G/W38K/Y107V/Y59G/Y89S); type: binding
DRB1*0802 = DRB1*0802 (Homo sapiens, UniProt P01903+P01911, A100R/A103L/A169T/F76Y/H45Y/I96F/K41T/L162R/M171V/P40S/Q125H/Q178H/Q39Y/Q99D/R218S/R42G/S66Y/V115G/W38E); type: binding
DRB1*1302 = DRB1*1302 (Homo sapiens, UniProt P01903+P01911, A100E/A169T/K41T/L162R/M171V/P40S/Q125H/Q178H/Q39Y/Q99D/R42S/S66N/T262R/V115G/W38E/Y61H); type: binding
DR4w4 (DRB1*0401) = DR4w4 (DRB1*0401) (Homo sapiens, UniProt P01903+P01911, A100K/A169T/F76Y/I96L/K127E/L162R/M171V/N62H/P40V/Q125Y/R42H/S133A/S149N/S66Y/V115G/V209L/W38E); type: binding
DRB1*0405 = DRB1*0405 (Homo sapiens, UniProt P01903+P01911, A100R/A169T/D86S/F76Y/I96L/K127E/L162R/M171V/N62H/P40V/Q125Y/R42H/S133A/S149N/S66Y/V115G/V209L/W38E); type: binding
DR1 (DRB1*0101) = DR1 (DRB1*0101) (Homo sapiens, UniProt P01903+P01911, A100R/D57E/F55L/F60I/F76Y/I96L/L162R/M171V/P40L/Q125E/R42F/V115G/Y59C); type: binding
DRB1*0301 = DRB1*0301 (Homo sapiens, UniProt P01903+P01911, A100K/A102G/A103R/A169T/F55Y/I96L/K41T/L162R/M171V/P40S/Q125H/Q178H/Q39Y/R42S/S66N/T106N/T262R/W38E/Y61H); type: binding
DRB4*0101 = DRB4*0101 (Homo sapiens, UniProt P01903+P13762, G164S); type: binding
DRB1*1201 = DRB1*1201 (Homo sapiens, UniProt P01903+P01911, A100R/A169T/D57E/D86V/F55L/H45Y/K41T/L162R/M171V/P40S/Q125H/Q178H/Q39Y/Q99D/R42G/S66L/T262R/V114A/V67L/W38E/Y59H/Y61H/Y89S); type: binding

Sequence of DRB1*1302 (P01903 26-254 limits assumed, other chains not shown): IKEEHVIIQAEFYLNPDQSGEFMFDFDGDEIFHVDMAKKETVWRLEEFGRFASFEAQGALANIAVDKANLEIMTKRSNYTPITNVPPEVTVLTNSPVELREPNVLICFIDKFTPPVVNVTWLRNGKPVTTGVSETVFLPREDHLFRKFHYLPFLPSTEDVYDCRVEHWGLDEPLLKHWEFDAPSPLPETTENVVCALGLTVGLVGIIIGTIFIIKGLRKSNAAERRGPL
Sequence of DRB1*1101 (P01903 26-254 limits assumed, other chains not shown): as above
Sequence of DRB1*0301 (P01903 26-254 limits assumed, other chains not shown): as above

Row | Compound | IC50 (DRB3*0101) | IC50 (DRB1*1501) | IC50 (DR7 (DRB1*0701)) | IC50 (DRB5*0101; Binding affinity DRB5 *0101) | IC50 (DRB1*0901) | IC50 (DRB1*0802) | IC50 (DRB1*1101; Binding affinity DRB1 *1101) | IC50 (DRB1*1302) | other results
1 | CC[C@H](C)[C@H](NC(=O)CNC(=O)[C@H](Cc1ccc(O)cc1)NC(=O)[C@H](CC(C)C)NC(=O)[C@H](CO)NC(=O)[C@H](CC(C)C)NC(=O)[C@H](CC(C)C)NC(=O)[C@H](CO)NC(=O)[C@H](CC(C)C)NC(=O)[C@H](CCC(=O)O)NC(=O)[C@H](CO)NC(=O)[C@H](CC(C)C)NC(=O)[C@H](CCC(=O)O)NC(=O)[C@H](CCCNC(=N)N)NC(=O)[C@@H](N)CC(C)C)C(=O)O [Peptide 68.0043] | > 20 µM |  |  |  |  |  |  |  | 
2 | CC[C@H](C)[C@H](NC(=O)[C@H](Cc1c[nH]cn1)NC(=O)[C@H](CCSC)NC(=O)[C@H](CCCCN)NC(=O)[C@@H](NC(=O)[C@H](CCCCN)NC(=O)[C@H](CCC(N)=O)NC(=O)[C@@H](NC(=O)[C@H](CO)NC(=O)[C@H](Cc1ccccc1)NC(=O)[C@H](CC(N)=O)NC(=O)CNC(=O)[C@@H](N)[C@@H](C)O)[C@@H](C)O)C(C)C)C(=O)N[C@@H](Cc1c[nH]cn1)C(=O)N[C@@H](CO)C(=O)O [Peptide 68.0105] | > 20 µM |  |  |  |  |  |  |  | 
3 | CC[C@H](C)[C@H](NC(=O)[C@H](C)NC(=O)[C@H](CCCCN)NC(=O)[C@H](Cc1c[nH]cn1)NC(=O)[C@H](C)NC(=O)[C@H](CCCCN)NC(=O)[C@H](CO)NC(=O)[C@H](CCCCN)NC(=O)[C@H](CO)NC(=O)[C@@H](NC(=O)[C@H](CC(N)=O)NC(=O)[C@@H](NC(=O)[C@@H]1CCCN1)[C@@H](C)CC)[C@@H](C)CC)C(=O)N[C@@H](CCC(=O)O)C(=O)N[C@@H](CC(C)C)C(=O)O [Peptide 1601.30] | > 20 µM |  |  |  |  |  |  |  | 
4 | YIVMSDWTGGA [Peptide 510.33] | > 33.3 µM |  |  |  |  |  |  |  | IC50 (DRB5*0101; DRB5*0101): > 10 µM; IC50 (DRB1*1101; DRB1*1101): > 6.67 µM
5 | CC[C@H](C)[C@H](NC(=O)CNC(=O)[C@H](CCC(N)=O)NC(=O)[C@H](CC(C)C)NC(=O)[C@@H](NC(=O)CNC(=O)[C@H](CC(N)=O)NC(=O)[C@H](CS)NC(=O)[C@@H](NC(=O)[C@H](CC(C)C)NC(=O)[C@@H]1CCCN1C(=O)CNC(=O)CN)C(C)C)C(C)C)C(=O)N[C@H](C(=O)N[C@@H](CO)C(=O)O)[C@@H](C)O [Peptide 68.0079] | > 20 µM | > 20 µM | > 20 µM |  |  |  |  |  | 
6 | CC(C)C[C@H](NC(=O)[C@H](CC(=O)O)NC(=O)[C@H](CCCCN)NC(=O)[C@H](Cc1ccccc1)NC(=O)[C@H](C)NC(=O)[C@H](Cc1ccccc1)NC(=O)[C@H](CCC(=O)O)NC(=O)[C@H](Cc1ccccc1)NC(=O)[C@@H](NC(=O)[C@@H](N)CCC(=O)O)C(C)C)C(=O)N[C@@H](Cc1ccccc1)C(=O)N[C@H](C(=O)N[C@H](C(=O)N[C@@H](Cc1ccc(O)cc1)C(=O)N[C@@H](CCCNC(=N)N)C(=O)O)C(C)C)C(C)C [Peptide 1543.35] | > 20 µM |  |  | > 20 µM | > 20 µM |  |  |  | 
7 | CC[C@H](C)[C@H](NC(=O)[C@@H](NC(=O)[C@@H]1CCCN1C(=O)CNC(=O)[C@@H](NC(=O)[C@H](CC(C)C)NC(=O)[C@H](CCC(=O)O)NC(=O)[C@H](C)NC(=O)[C@@H](N)Cc1ccccc1)C(C)C)C(C)C)C(=O)N1CCC[C@H]1C(=O)N[C@@H](CCC(N)=O)C(=O)N[C@@H](CC(=O)O)C(=O)N[C@@H](Cc1c[nH]c2ccccc12)C(=O)N[C@@H](CO)C(=O)N[C@H](C(=O)O)[C@@H](C)O [Peptide 68.0056] | > 20 µM | > 20 µM | > 20 µM | > 20 µM | > 20 µM | > 20 µM | > 20 µM | > 20 µM | 
8 | DYVLDLQPEATDLHC [Peptide 1543.10] |  | > 20 µM | > 20 µM | > 20 µM | > 20 µM | > 20 µM | > 20 µM | > 20 µM | IC50 (DR4w4 (DRB1*0401)): 35 nM; IC50 (DRB1*0405): 678 nM; IC50 (DR1 (DRB1*0101)): 5050 nM; IC50 (DRB1*0301): 11 µM; IC50 (DRB4*0101): 69 nM; IC50 (DRB1*1201): 4880 nM
9 | FQVIELQMALETLNA [Peptide 90.0025] |  | 0.449 µM | 2.65 µM | > 20 µM | 1.97 µM | > 20 µM | 3.99 µM | 0.187 µM | IC50 (DR4w4 (DRB1*0401)): 75 nM; IC50 (DRB1*0405): 2490 nM; IC50 (DR1 (DRB1*0101)): 20 nM; IC50 (DRB1*0301): 0.743 µM; IC50 (DRB4*0101): 15 nM; IC50 (DRB1*1201): 708 nM
